Data: patent publication US20130053243A1, “PLANTS HAVING INCREASED TOLERANCE TO HERBICIDES” (BASF SE, priority 2010, published 2013)

How the values were obtained:
Arabidopsis HPPD = molecular target: T1, Arabidopsis HPPD (Arabidopsis thaliana, UniProt P93836); assay: HPPD activity assay (homogentisic acid by HPLC), wildtype enzyme; assay type: biochemical; settings: Table 11, calculated from IC50 with Cheng-Prusoff equation, read-out: dissociation constant Ki
T1 construct: His6 (N); made in house; host or cells: E. coli BL21 (DE3)
T1 sequence (P93836 1-445): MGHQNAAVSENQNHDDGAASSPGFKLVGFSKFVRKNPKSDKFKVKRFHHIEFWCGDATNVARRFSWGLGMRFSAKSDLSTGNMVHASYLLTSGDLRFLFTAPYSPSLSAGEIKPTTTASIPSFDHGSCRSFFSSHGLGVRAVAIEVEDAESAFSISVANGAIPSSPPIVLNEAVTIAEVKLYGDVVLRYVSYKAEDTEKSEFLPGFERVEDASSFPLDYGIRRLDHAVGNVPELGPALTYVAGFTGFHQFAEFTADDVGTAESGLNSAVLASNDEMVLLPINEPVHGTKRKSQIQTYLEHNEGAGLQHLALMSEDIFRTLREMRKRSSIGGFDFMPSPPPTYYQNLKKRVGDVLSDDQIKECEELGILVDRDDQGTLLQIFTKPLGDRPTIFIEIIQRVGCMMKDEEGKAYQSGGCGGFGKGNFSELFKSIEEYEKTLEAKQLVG
Description: HPPD produces homogentisic acid and CO2 from 4-hydroxyphenylpyruvate (4-HPP) and O2. The activity assay for HPPD is based on the analysis of homogentisic acid by reversed phase HPLC.
The assay mixture can contain 150 mM potassium phosphate buffer pH 7.0, 50 mM L-ascorbic acid, 1 μM FeSO4 and 7 μg of purified enzyme in a total volume of 1 ml.
Inhibitors are dissolved in DMSO (dimethylsulfoxide) to a concentration of 20 mM or 0.5 mM, respectively. From this stock solution serial five-fold dilutions are prepared in DMSO, which are used in the assay. The respective inhibitor solution accounts for 1% of the assay volume. Thus, final inhibitor concentrations range from 200 μM to 2.5 nM or from 5 μM to 63 pM, respectively.
After a preincubation of 30 min the reaction is started by adding 4-HPP to a final concentration of 0.1 mM. The reaction is allowed to proceed for 120 min at room temperature. The reaction is stopped by addition of 100 μl of 4.5 M phosphoric acid.
The sample is extracted on an Oasis® HLB cartridge 3 cc/60 mg (Waters) that was preequilibrated with 63 mM phosphoric acid. L-ascorbic acid is washed out with 3 ml of 63 mM phosphoric acid. […]
10 μl of the eluate is analyzed by reversed phase HPLC on a Symmetry® C18 column (particle size 3.5 μm, dimensions 4.6×100 mm; Waters) using 5 mM H3PO4/15% ethanol (w/w) as an eluent.
Homogentisic acid is detected electrochemically and quantified by measuring peak areas (Empower software; Waters).
Activities are normalized by setting the uninhibited enzyme activity to 100%. IC50 values are calculated using non-linear regression. […]
5 μl of the cleared sample is analyzed on an Atlantis T3 column (particle size 3 μm, dimensions 3×50 mm; Waters) by isocratic elution using 90% 10 mM NaH2PO4 pH 2.2, 10% methanol (v/v).
HGA is detected electrochemically at 750 mV (mode: DC; polarity: positive) and quantified by integrating peak areas (Empower software; Waters).
Inhibitors are dissolved in DMSO (dimethylsulfoxide) to a concentration of 0.5 mM. […] IC50 values are calculated using non-linear regression. […]

[1] = tested on: soybean plants, wild type (non-transformed); assay: Greenhouse spray test, soybean T0 cuttings; assay type: in vivo, Glycine max; settings: no transgene, two weeks after treatment, scale 0 (no injury) to 9 (complete death)
Description: Transgenic plants expressing heterologous HPPD or HST enzymes are tested for tolerance against coumarone-derivative herbicides in greenhouse experiments.
For post emergence treatment, the test plants are first grown to a height of 3 to 15 cm, depending on the plant habit, and only then treated with the herbicides. For this purpose, the test plants are either sown directly and grown in the same containers, or they are first grown separately and transplanted into the test containers a few days prior to treatment.
For testing of T0 plants, cuttings can be used. In the case of soybean plants, an optimal shoot for cutting is about 7.5 to 10 cm tall, with at least two nodes present. Each cutting is taken from the original transformant (mother plant) and dipped into rooting hormone powder (indole-3-butyric acid, IBA). The cutting is then placed in oasis wedges inside a bio-dome. Wild type cuttings are also taken simultaneously to serve as controls. The cuttings are kept in the bio-dome for 5-7 days and then transplanted to pots and then acclimated in the growth chamber for two more days. Subsequently, the cuttings are transferred to the greenhouse, acclimated for approximately 4 days, and then subjected to spray tests as indicated. Depending on the species, the plants are kept at 10-25° C. or 20-35° C. The test period extends over 3 weeks. During this time, the plants are tended and their response to the individual treatments is evaluated. Herbicide injury evaluations are taken at 2 and 3 weeks after treatment. Plant injury is rated on a scale of 0 to 9, 0 being no injury and 9 being complete death.

CC1=NOC(c2c(Cl)ccc(C3=C(O)c4ncccc4N(CC(F)F)S3(=O)=O)c2Cl)C1 (stereo not shown) [Inhibitor 1, 3-[2,4-dichloro-3-(3-methyl-4,5-dihydroisoxazol-5-yl)phenyl]-1-(2,2-difluoroethyl)-2,2-dioxo-pyrido[3,2-c]thiazin-4-ol]
Ki (Arabidopsis HPPD): 3 nM
Injury evaluation (plant injury rating) ([1]; 50 g/ha): 4.5
Injury evaluation (plant injury rating) ([1]; 100 g/ha): 5.5
Injury evaluation (plant injury rating) ([1]; 200 g/ha): 6

Cc1c(C(=O)c2cnn(C)c2O)ccc(S(C)(=O)=O)c1C1=NOCC1 [Topramezone, reference compound]
Ki (Arabidopsis HPPD): 4 nM
Injury evaluation (plant injury rating) ([1]; 6.25 g/ha): 7
Injury evaluation (plant injury rating) ([1]; 12.5 g/ha): 7
